The text below walks through data of US7217727B2, “Phospholipase inhibitors” (Eli Lilly and Company, priority 2003, dated 2007).

The structures appear in SMILES notation.

For the first data set, the target named is T1, Recombinant Hepatic Lipase (Homo sapiens, UniProt P11150).
T1 construct: made in house; host or cells: AV12 cells
T1 sequence (P11150 23-499): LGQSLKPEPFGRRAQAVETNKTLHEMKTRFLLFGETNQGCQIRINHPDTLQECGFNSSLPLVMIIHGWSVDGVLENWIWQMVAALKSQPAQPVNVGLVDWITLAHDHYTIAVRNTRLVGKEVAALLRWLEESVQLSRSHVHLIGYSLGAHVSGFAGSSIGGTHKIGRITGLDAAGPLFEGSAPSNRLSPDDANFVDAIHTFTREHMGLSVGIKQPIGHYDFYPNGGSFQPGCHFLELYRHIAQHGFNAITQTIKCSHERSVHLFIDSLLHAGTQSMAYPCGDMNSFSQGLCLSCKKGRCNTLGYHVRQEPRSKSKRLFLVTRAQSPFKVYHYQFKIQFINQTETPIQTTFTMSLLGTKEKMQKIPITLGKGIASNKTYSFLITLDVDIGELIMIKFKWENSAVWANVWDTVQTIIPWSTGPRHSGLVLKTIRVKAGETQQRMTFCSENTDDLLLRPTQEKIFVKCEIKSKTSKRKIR
Description: Hepatic Lipase Phospholipase Assay (ThioPEG substrate, DTNB read at 412 nm). The format is biochemical. The note with it: recombinant HL 12.5 nM, 37° C., pH 8.3, read-out: IC50 (nM), hepatic lipase inhibition assay. The protocol:
Hepatic Lipase Phospholipase Assay
Efficacy was determined by testing various compounds of the invention in a hepatic lipase and/or endothelial lipase assay discussed below, and disclosed in U.S. patent application Ser. No. 09/609, 871 filed Jul. 3, 2000 incorporated herein in its entirety for U.S Patent office purposes.
• Substrate Buffer A: 100 mM Hepes, pH 8.3 at 37° C. • Substrate Buffer B: 100 mM Hepes, pH 8.3 at 37° C. with 6.83 mM Triton X100 • ThioPEG: Molecular wt. of 540 • Recombinant Hepatic Lipase • Thiophospholipid: about 0.42 mM thiophospholipid in chloroform • DTNB Solution: about […] DTNB in DMSO (dimethyl sulfoxide) Hepes Buffer A
For Hepes Buffer A,.there is 2.4 g Hepes/100 mL water. Therefore 36 grams of Hepes is dissolved in 1500 mL of water. The mix solution's pH is adjusted to pH83 at 37° C. and brought up to 1500 mL with water. 500 mL of Buffer A is retained for the Protein Buffer.
To the remaining 1000 mL of Hepes Buffer A, 4.49 g of Triton X-100 is added and then the combination mixed on a stir plate. It is optimal that stock Buffer A not be too cold or Triton X-100 will take a long time to go into solution […]
The enzyme is stored at −80° C. in 100 or 50 μL portions. […] The enzyme should then be stored on ice until ready to use. […]
Take `O=C(NCc1ccccc1)n1oc2ccccc2c1=O`: the IC50 – broadly, the concentration needed to halve the response being measured – was 60 nM.

System in another data set: not given
Experiment: not given
Conditions: not given
With `CCNC(=O)n1oc2ccccc2c1=O` [Example 1, 3-Oxo-3H-benzo[d]isoxazole-2-carboxylic acid ethylamide], the melting point (usually the temperature of the solid-liquid transition) lay in the range of 112 to 113 °C.

Molecule `CCCCNC(=O)n1oc2ccccc2c1=O` [Example 2, 3-Oxo-3H-benzo[d]isoxazole-2-carboxylic acid butylamide] returned a melting point of 64 to 65 °C.

`CCCCCCNC(=O)n1oc2ccccc2c1=O` [Example 3, 3-Oxo-3H-benzo[d]isoxazole-2-carboxylic acid hexylamide] returned a melting point of 46 to 48 °C.

As to `CC(C)CCCCNC(=O)n1oc2ccccc2c1=O` [Example 4, 3-Oxo-3H-benzo[d]isoxazole-2-carboxylic acid (5-methyl-hexyl)amide], the melting point is 73 to 75 °C.

Molecule `CCCCCCCCNC(=O)n1oc2ccccc2c1=O` [Example 5, 3-Oxo-3H-benzo[d]isoxazole-2-carboxylic acid octylamide] showed a melting point of 47 to 48 °C.

In turn, `O=C(NCC1CCCCC1)n1oc2ccccc2c1=O` [Example 6, 3-Oxo-3H-benzo[d]isoxazole-2-carboxylic acid cyclohexylmethyl-amide] gave a melting point of 82 to 84 °C.

In turn, `Cc1ccccc1CNC(=O)n1oc2ccccc2c1=O` [Example 8, 3-Oxo-3H-benzo[d]isoxazole-2-carboxylic acid 2-methyl-benzylamide] displayed a melting point of 154 to 155 °C.

In turn, `Cc1cccc(CNC(=O)n2oc3ccccc3c2=O)c1` [Example 9, 3-Oxo-3H-benzo[d]isoxazole-2-carboxylic acid 3-methyl-benzylamide] gave a melting point of 110 to 112 °C.

With `O=C(NCc1ccccc1C(F)(F)F)n1oc2ccccc2c1=O` [Example 11, 3-Oxo-3H-benzo[d]isoxazole-2-carboxylic acid 2-trifluoromethyl-benzylamide], the melting point lay in the range of 139 to 141 °C.

The molecule `O=C(NCc1ccccc1F)n1oc2ccccc2c1=O` [Example 12, 3-Oxo-3H-benzo[d]isoxazole-2-carboxylic acid 2-fluoro-benzylamide] displayed a melting point of 142 to 143 °C.

As to `CCc1ccccc1CNC(=O)n1oc2ccccc2c1=O` [Example 14, 3-Oxo-3H-benzo[d]isoxazole-2-carboxylic acid 2-ethyl-benzylamide], the melting point lay within 107 to 109 °C.

Regarding `CCc1cccc(CNC(=O)n2oc3ccccc3c2=O)c1` [Example 15, 3-Oxo-3H-benzo[d]isoxazole-2-carboxylic acid 3-ethyl-benzylamide], the melting point was in the range of 72 to 73 °C.

Regarding `CC(C)(C)c1ccc(CNC(=O)n2oc3ccccc3c2=O)cc1` [Example 16, 3-Oxo-3H-benzo[d]isoxazole-2-carboxylic acid 4-tert-butyl-benzylamide], the melting point was 123 to 125 °C.

The molecule `Cc1cccc(C(C)C)c1CNC(=O)n1oc2ccccc2c1=O` [Example 17, 3-Oxo-3H-benzo[d]isoxazole-2-carboxylic acid 2-isopropyl-6-methyl-benzylamide] gave a melting point of 112 to 114 °C.

In turn, `COc1cccc(CNC(=O)n2oc3ccccc3c2=O)c1` [Example 18, 3-Oxo-3H-benzo[d]isoxazole-2-carboxylic acid 3-methoxy-benzylamide] returned a melting point of 99 to 100 °C.

Take `COc1ccc(CNC(=O)n2oc3ccccc3c2=O)cc1` [Example 19, 3-Oxo-3H-benzo[d]isoxazole-2-carboxylic acid 4-methoxy-benzylamide]: the melting point lay in the range of 140 to 141 °C.

In turn, `CCOc1ccccc1CNC(=O)n1oc2ccccc2c1=O` [Example 20, 3-Oxo-3H-benzo[d]isoxazole-2-carboxylic acid 2-ethoxy-benzylamide] had a melting point of 110 to 112 °C.

With `CCOc1cccc(CNC(=O)n2oc3ccccc3c2=O)c1` [Example 21, 3-Oxo-3H-benzo[d]isoxazole-2-carboxylic acid 3-ethoxy-benzylamide], the melting point fell in the range of 89 to 90 °C.

As to `CCOc1ccc(CNC(=O)n2oc3ccccc3c2=O)cc1` [Example 22, 3-Oxo-3H-benzo[d]isoxazole-2-carboxylic acid 4-ethoxy-benzylamide], the melting point lay within 110 to 112 °C.

In the case of `O=C(NCCc1ccccc1)n1oc2ccccc2c1=O` [Example 23, 3-Oxo-3H-benzo[d]isoxazole-2-carboxylic acid phenethyl-amide], the melting point fell in the range of 106 to 107 °C.
